Results taken from article PMC9405973, “Altered Conformational Landscape upon Sensing Guanine Nucleotides in a Disease Mutant of Elongation Factor-like 1 (EFL1) GTPase” (Biomolecules, 2022).
Several values for one entry are separate records, joined by “and”; a condition that tells them apart may be missing. Equal values may be shown once.

Target: T1, Efl1 R1086Q (Saccharomyces cerevisiae, UniProt P53893, R1086Q)
T1 construct: made in house; host or cells: Saccharomyces cerevisiae
Experiment: Isothermal titration calorimetry (ITC): binding of guanine nucleotides or Sdo1 to Efl1 R1086Q
Conditions: for Kd / -TΔSb / ΔGb / ΔHb / ΔCpb: guanine nucleotide; for ΔCpb: from ΔHb at 25–35 °C
Protocol: All calorimetric measurements were carried out using MicroCal^TM iTC200 System (GE Healthcare, Northampton, MA, USA) in a temperature range of 25–35 °C. Experiments were performed in a buffer consisting of 50 mM Tris-HCl (pH 8.0), 150 mM NaCl, 100 µM DTT, and 5% glycerol. In the titrations with Mg^2+-bound nucleotides, both the ligand and protein solutions contained 5 mM MgCl2. In the case of titrations with Mg^2+-free nucleotide, both the ligand and protein solutions were supplemented with 2 mM EDTA to sequester any residual trace of metal ions in solution. Protein samples and ligands were prepared in the exact same buffer prior to each titration. Protein concentration in the cell comprised 30–50 µM GTPase, while the ligand concentration in the syringe was 2–3 mM for GTP, MgGTP, GDP, and MgGDP. To ensure measuring the interaction of the complex Efl1 R1086Q•Sdo1 with the nucleotide, an eight-fold concentration excess of Sdo1 was used compared with that of the enzyme. […] The titration schedule consisted of 15–20 consecutive injections of the ligand with 5 min intervals between injections and a stirring rate of 700 rpm. The dilution heat of the ligand was obtained by adding the ligand to a buffer solution under identical conditions and with the same injection schedule used for the protein sample. All samples were degassed for 10 min prior to the experiment.
The binding isotherms obtained for the isolated GTPase in the presence of Mg(II) were analysed using a ternary model in which the protein can bind to the free nucleotide (G(D)TP) or that bound to one magnesium ion (MgG(D)TP); additionally, GTP may also exist in the form of Mg2GTP, which is not recognised by the protein. The derivation of this coupled-equilibria model can be reviewed in [6, 31]. The binding constant (Kb), the enthalpy change (∆Hb), and the stoichiometry (n) were obtained with the non-linear routines implemented in Origin 5.0 (OriginLab, Co., Northampton, MA, USA) using a one-binding-site model as described in [32, 33]. The heterotropic cooperativity for the binding of guanine nucleotides and Sdo1 to Efl1 R1086Q were calculated as previously described in [6, 32]. The cooperative effects of Mg(II) on the binding of guanine nucleotides to Efl1 R1086Q alone and bound to Sdo1 were calculated as follows:κ = KE-MG/KE-G κ = KES-MG/KES-G Δh = ΔHE-MG − ΔHE-G Δh = ΔHES-MG − ΔHES-G where subscripts E-MG and E-G stand for the association of the metal-bound and metal-free guanine nucleotide with mutant Efl1, respectively. Corresponding expressions applied to the heterotropic cooperativity of the binding of nucleotides to the preformed complex, Efl1•Sdo1 (ES).
The impact of Sdo1 on the binding of Efl1 R1086Q to guanine nucleotides in the presence of magnesium ions is contained in KES-MG and ΔHES-MG relative to the KE-S and ΔHE-S values; analogous ratios report the effects in the absence of Mg(II):κ = KES-MG/KE-S κ = KES-G/KE-G Δh = ΔHES-MG − ΔHE-S Δh = ΔHES-G − ΔHE-G
The corresponding cooperative entropy change was calculated as:TΔs = Δh − Δg = Δh + RTlnκ
The detailed methodology and equations to compute the changes in the accessible surface area (∆ASA) of the GTPase upon binding to nucleotides and the ∆S energetic-based parameters are reported in [6]. Briefly, the water-accessible areas (ASAs) were computed using programme NACCESS, while the changes in accessible surface area (ΔASA) upon the formation of each GTPase–nucleotide complex were estimated considering the difference between the complex and the sum of the free interacting partners. The calculated polar (ΔASAp) and apolar (ΔASAap) area changes were subsequently used to estimate the free molecular partners. […]

[1] = Effect of Mg^2+, Efl1 R1086Q − Sdo1, 25 °C
[2] = Effect of Mg^2+, Efl1 R1086Q − Sdo1, 30 °C
[3] = Effect of Mg^2+, Efl1 R1086Q − Sdo1, 35 °C
[4] = Effect of Sdo1, Efl1 R1086Q + Mg^2+, 25 °C
[5] = Effect of Sdo1, Efl1 R1086Q + Mg^2+, 30 °C
[6] = Effect of Sdo1, Efl1 R1086Q + Mg^2+, 35 °C
[7] = Effect of Sdo1, Efl1 R1086Q − Mg^2+, 25 °C
[8] = Effect of Sdo1, Efl1 R1086Q − Mg^2+, 30 °C
[9] = Effect of Sdo1, Efl1 R1086Q − Mg^2+, 35 °C

T1 sequence (P53893 whole entry R1086Q): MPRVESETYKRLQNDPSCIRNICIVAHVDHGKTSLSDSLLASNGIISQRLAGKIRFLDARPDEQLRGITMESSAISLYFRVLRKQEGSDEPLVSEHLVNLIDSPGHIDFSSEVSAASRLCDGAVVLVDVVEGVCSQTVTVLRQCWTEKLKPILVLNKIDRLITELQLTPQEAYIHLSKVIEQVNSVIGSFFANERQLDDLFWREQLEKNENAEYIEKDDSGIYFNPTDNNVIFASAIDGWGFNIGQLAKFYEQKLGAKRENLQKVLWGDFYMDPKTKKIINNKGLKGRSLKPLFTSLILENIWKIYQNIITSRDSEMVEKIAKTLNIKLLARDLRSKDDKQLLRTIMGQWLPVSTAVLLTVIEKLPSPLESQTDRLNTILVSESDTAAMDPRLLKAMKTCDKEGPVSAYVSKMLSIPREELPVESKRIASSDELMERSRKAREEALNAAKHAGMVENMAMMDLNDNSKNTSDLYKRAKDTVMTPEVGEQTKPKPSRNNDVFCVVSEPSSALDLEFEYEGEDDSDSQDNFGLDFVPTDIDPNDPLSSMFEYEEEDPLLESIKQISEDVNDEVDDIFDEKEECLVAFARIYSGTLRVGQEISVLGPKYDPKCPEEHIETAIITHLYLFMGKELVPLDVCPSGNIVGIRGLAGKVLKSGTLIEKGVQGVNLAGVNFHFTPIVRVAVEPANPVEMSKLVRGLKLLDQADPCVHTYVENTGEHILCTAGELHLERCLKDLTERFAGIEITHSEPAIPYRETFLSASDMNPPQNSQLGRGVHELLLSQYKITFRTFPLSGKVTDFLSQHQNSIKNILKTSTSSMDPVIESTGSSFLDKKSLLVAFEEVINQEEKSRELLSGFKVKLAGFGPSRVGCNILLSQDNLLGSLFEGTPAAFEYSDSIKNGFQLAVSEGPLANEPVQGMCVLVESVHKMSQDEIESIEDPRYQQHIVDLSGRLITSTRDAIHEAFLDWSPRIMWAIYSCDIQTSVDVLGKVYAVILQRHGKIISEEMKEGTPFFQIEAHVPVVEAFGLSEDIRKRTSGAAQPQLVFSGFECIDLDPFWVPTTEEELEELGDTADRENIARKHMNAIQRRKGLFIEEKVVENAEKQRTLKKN

## Nc1nc2c(ncn2[C@@H]2O[C@H](COP(=O)(O)OP(=O)(O)O)[C@@H](O)[C@H]2O)c(=O)[nH]1 [GDP]
25 °C to 35 °C
  increase in binding enthalpy as temperature increased: ~ 6 kcal mol^−1
+Mg^2+, 30 °C
  Nconfres (number of residues changing conformation, absolute value): 21
  Nconfrotb (number of routable bonds changing conformation, absolute value): 30
  ΔCpconf: −222 cal mol^−1 K^−1
  ΔSb: 7 cal mol^−1 K^−1
  ΔSconf: −49 cal mol^−1 K^−1
  ΔSsolv: 65 cal mol^−1 K^−1
  −ΔASAconf: 996 Å^2
  Kd: 28 ± 6 µM
  -TΔSb: -2.20 kcal/mol
  ΔGb: -6.30 kcal/mol
  ΔHb: -4.1 ± 0.6 kcal/mol
[1]
  -TΔs: -2.3 kcal/mol
  Δg: 1.3 kcal/mol
  Δh: 3.5 kcal/mol
  κ (heterotropic cooperativity): 0.1
[2]
  -TΔs: -2.4 kcal/mol
  Δg: 1.2 kcal/mol
  Δh: 3.6 kcal/mol
  κ (heterotropic cooperativity): 0.1
[3]
  -TΔs: -2.1 kcal/mol
  Δg: 1.2 kcal/mol
  Δh: 3.3 kcal/mol
  κ (heterotropic cooperativity): 0.2
[4]
  -TΔs: -1.6 kcal/mol
  Δg: -0.6 kcal/mol
  Δh: 1.0 kcal/mol
  κ (heterotropic cooperativity): 2.7
[5]
  -TΔs: -1.1 kcal/mol
  Δg: -0.8 kcal/mol
  Δh: 0.3 kcal/mol
  κ (heterotropic cooperativity): 3.6
[6]
  -TΔs: -1.4 kcal/mol
  Δg: -0.9 kcal/mol
  Δh: 0.5 kcal/mol
  κ (heterotropic cooperativity): 4.6
[7]
  -TΔs: -3.1 kcal/mol
  Δg: 1.06 kcal/mol
  Δh: 4.2 kcal/mol
  κ (heterotropic cooperativity): 0.2
[8]
  -TΔs: -1.2 kcal/mol
  Δg: 1.2 kcal/mol
  Δh: 2.3 kcal/mol
  κ (heterotropic cooperativity): 0.1
[9]
  Δg: 1.3 kcal/mol
  Δh: 1.2 kcal/mol
  κ (heterotropic cooperativity): 0.1
+Mg^2+, 25 °C
  Kd: 24 ± 3 µM
  -TΔSb: -3.19 kcal/mol
  ΔGb: -6.29 kcal/mol
  ΔHb: -3.1 ± 0.1 kcal/mol
+Mg^2+, 35 °C
  Kd: 29 ± 8 µM
  -TΔSb: -0.59 kcal/mol
  ΔGb: -6.39 kcal/mol
  ΔHb: -5.8 ± 0.2 kcal/mol
−Mg^2+, 25 °C
  Kd: 3 ± 0.4 µM
  -TΔSb: -0.94 kcal/mol
  ΔGb: -7.54 kcal/mol
  ΔHb: -6.6 ± 0.2 kcal/mol
−Mg^2+, 30 °C
  Kd: 4 ± 0.6 µM
  -TΔSb: 0.22 kcal/mol
  ΔGb: -7.47 kcal/mol
  ΔHb: -7.7 ± 0.3 kcal/mol
  Nconfres (number of residues changing conformation, absolute value): 21
  ΔCpconf: −220 cal mol^−1 K^−1
  ΔSb: −1 cal mol^−1 K^−1
  ΔSconf: −53 cal mol^−1 K^−1
  ΔSsolv: 60 cal mol^−1 K^−1
  −ΔASAconf: 987 Å^2
−Mg^2+, 35 °C
  Kd: 4 ± 0.6 µM
  -TΔSb: 1.55 kcal/mol
  ΔGb: -7.55 kcal/mol
  ΔHb: -9.1 ± 0.3 kcal/mol
+Mg^2+
  ΔCpb: −270 ± 40 cal mol^−1 K^−1 and −270 cal mol^−1 K^−1
−Mg^2+
  ΔCpb: −250 cal mol^−1 K^−1 and −250 ± 17 cal mol^−1 K^−1
Refers to Table 3, 30 °C
  surface buried by the conformational change: ~ 1000 Å

## Nc1nc2c(ncn2[C@@H]2O[C@H](COP(=O)(O)OP(=O)(O)OP(=O)(O)O)[C@@H](O)[C@H]2O)c(=O)[nH]1 [GTP]
+Mg^2+, 30 °C
  Nconfres (number of residues changing conformation, absolute value): 3
  Nconfrotb (number of routable bonds changing conformation, absolute value): 21
  ΔCpconf: 35 cal mol^−1 K^−1
  ΔSb: 25 cal mol^−1 K^−1
  ΔSconf: 36 cal mol^−1 K^−1
  ΔSsolv: −2 cal mol^−1 K^−1
  −ΔASAconf: −157 Å^2
  Kd: 16 ± 3 µM
  -TΔSb: -7.74 kcal/mol
  ΔGb: -6.67 kcal/mol
  ΔHb: 1.07 ± 0.03 kcal/mol
[1]
  -TΔs: 0.5 kcal/mol
  Δg: -0.1 kcal/mol
  Δh: -0.56 kcal/mol
  κ (heterotropic cooperativity): 1.0
[2]
  -TΔs: 1.2 kcal/mol
  Δg: 0.6 kcal/mol
  Δh: -0.63 kcal/mol
  κ (heterotropic cooperativity): 0.4
[3]
  -TΔs: 1.3 kcal/mol
  Δg: 0.5 kcal/mol
  Δh: -0.78 kcal/mol
  κ (heterotropic cooperativity): 0.4
[4]
  -TΔs: 2.5 kcal/mol
  Δg: 0.3 kcal/mol
  Δh: -2.1 kcal/mol
  κ (heterotropic cooperativity): 0.6
[5]
  -TΔs: 4.8 kcal/mol
  Δg: 0.7 kcal/mol
  Δh: -4.1 kcal/mol
  κ (heterotropic cooperativity): 0.3
[6]
  -TΔs: 7.1 kcal/mol
  Δg: 0.9 kcal/mol
  Δh: -6.2 kcal/mol
  κ (heterotropic cooperativity): 0.3
[7]
  -TΔs: 5.6 kcal/mol
  Δg: 0.0 kcal/mol
  Δh: -5.6 kcal/mol
  κ (heterotropic cooperativity): 1.0
[8]
  -TΔs: 6.3 kcal/mol
  Δg: 0.7 kcal/mol
  Δh: -5.6 kcal/mol
  κ (heterotropic cooperativity): 0.3
[9]
  -TΔs: 6.5 kcal/mol
  Δg: 0.9 kcal/mol
  Δh: -5.6 kcal/mol
  κ (heterotropic cooperativity): 0.2
+Mg^2+, 25 °C
  Kd: 16 ± 2 µM
  -TΔSb: -7.57 kcal/mol
  ΔGb: -6.53 kcal/mol
  ΔHb: 1.04 ± 0.05 kcal/mol
+Mg^2+, 35 °C
  Kd: 13 ± 2 µM
  -TΔSb: -8.0 kcal/mol
  ΔGb: -6.88 kcal/mol
  ΔHb: 1.12 ± 0.06 kcal/mol
−Mg^2+, 25 °C
  Kd: 17 ± 5 µM
  -TΔSb: -8.12 kcal/mol
  ΔGb: -6.52 kcal/mol
  ΔHb: 1.6 ± 0.3 kcal/mol
−Mg^2+, 30 °C
  Kd: 6 ± 1 µM
  -TΔSb: -8.90 kcal/mol
  ΔGb: -7.20 kcal/mol
  ΔHb: 1.7 ± 0.1 kcal/mol
  Nconfres (number of residues changing conformation, absolute value): 4
  Nconfrotb (number of routable bonds changing conformation, absolute value): 27
  ΔCpconf: 41 cal mol^−1 K^−1
  ΔSb: 29 cal mol^−1 K^−1
  ΔSconf: 44 cal mol^−1 K^−1
  ΔSsolv: −7 cal mol^−1 K^−1
  −ΔASAconf: −184 Å^2
−Mg^2+, 35 °C
  Kd: 6 ± 1 µM
  -TΔSb: -9.30 kcal/mol
  ΔGb: -7.40 kcal/mol
  ΔHb: 1.9 ± 0.1 kcal/mol
+Mg^2+
  ΔCpb: 10 ± 2 cal mol^−1 K^−1 and 10 cal mol^−1 K^−1
−Mg^2+
  ΔCpb: 30 cal mol^−1 K^−1 and 30 ± 6 cal mol^−1 K^−1
Mutant Efl1
  overall heat-capacity change to drive the protein into ternary complex GTPase•GTP•Sdo1: −410 cal mol^−1 K^−1
